Measurements as given in US20090226527A1, “Particulate-stabilized injectable pharmacutical compositions of posaconazole” (priority 2004, published 2009).
In brackets after ≈: the same amount, converted by molar mass.

Columns and labels:
[1] = test system: infectious agents (strains tested); experiment: microbe, parasite or virus in culture; format: cell-based
[2] = Solubility of Posaconazole in water; format: physicochemical

**Q.** Which results are given for `CCC([C@@H](C)O)n1ncn(-c2ccc(N3CCN(c4ccc(OC[C@@H]5CO[C@@](Cn6cncn6)(c6ccc(F)cc6F)C5)cc4)CC3)cc2)c1=O` (stereo partly shown) [Posaconazole]?
**A.** MIC ([1]; Exophiala moniliae, read-out: MIC[90]): 0.016 µg/mL (≈ 0.0228 µM); MIC ([1]; Fonsecae pedrosoi, read-out: Geometric Mean MIC): 0.25 µg/mL (≈ 0.357 µM); MIC ([1]; Fonsecae pedrosoi, read-out: MIC[90]): 0.25 µg/mL (≈ 0.357 µM); MIC ([1]; Fusarium spp, read-out: Geometric Mean MIC): 2.32 µg/mL (≈ 3.31 µM); MIC ([1]; Fusarium spp, read-out: MIC[90]): 16 µg/mL (≈ 22.8 µM); MIC ([1]; Hansenula anomala, Pichia anomala, read-out: Geometric Mean MIC): 0.689 µg/mL (≈ 0.983 µM); MIC ([1]; Hansenula anomala, Pichia anomala, read-out: MIC[90]): 1 µg/mL (≈ 1.43 µM); MIC ([1]; Histoplasma capsulatum, read-out: Geometric Mean MIC, Histoplasma capsulatum): 0.038 µg/mL (≈ 0.0542 µM); MIC ([1]; Histoplasma capsulatum, read-out: MIC[90], Histoplasma capsulatum): 0.25 µg/mL (≈ 0.357 µM); MIC ([1]; Kluyveromyces marxianus, Candida kefyr, read-out: Geometric Mean MIC): 0.081 µg/mL (≈ 0.116 µM); MIC ([1]; Kluyveromyces marxianus, Candida kefyr, read-out: MIC[90]): 0.25 µg/mL (≈ 0.357 µM); MIC ([1]; Kluyveromyces marxianus, read-out: Geometric Mean MIC): 0.079 µg/mL (≈ 0.113 µM); MIC ([1]; Kluyveromyces marxianus, read-out: MIC[90]): 0.063 to 0.25 µg/mL (≈ 0.0899 to 0.357 µM); MIC ([1]; Kodamaea ohmeri, Pichia ohmeri, read-out: Geometric Mean MIC): 0.016 µg/mL (≈ 0.0228 µM); MIC ([1]; Kodamaea ohmeri, Pichia ohmeri, read-out: MIC[90]): 0.016 µg/mL (≈ 0.0228 µM); MIC ([1]; Lodderomyces parapsilosis, Candida parapsilosis, read-out: Geometric Mean MIC): 0.073 µg/mL (≈ 0.104 µM); MIC ([1]; Lodderomyces parapsilosis, Candida parapsilosis, read-out: MIC[90]): 0.125 µg/mL (≈ 0.178 µM); MIC ([1]; Meyerozyma guilliermondii, Candida guilliermondii, read-out: Geometric Mean MIC): 0.178 µg/mL (≈ 0.254 µM); MIC ([1]; Meyerozyma guilliermondii, Candida guilliermondii, read-out: MIC[90]): 0.5 µg/mL (≈ 0.713 µM); MIC ([1]; Microsporum audouinii, read-out: Geometric Mean MIC): 0.25 µg/mL (≈ 0.357 µM); MIC ([1]; Microsporum audouinii, read-out: MIC[90]): 0.25 µg/mL (≈ 0.357 µM); MIC ([1]; Microsporum canis, read-out: Geometric Mean MIC): 0.034 µg/mL (≈ 0.0485 µM); MIC ([1]; Microsporum canis, read-out: MIC[90]): 0.5 µg/mL (≈ 0.713 µM); MIC ([1]; Mucor spp, read-out: Geometric Mean MIC): 0.694 µg/mL (≈ 0.99 µM); MIC ([1]; Mucor spp, read-out: MIC[90]): 16 µg/mL (≈ 22.8 µM); MIC ([1]; Nakaseomyces glabratus, Candida glabrata, read-out: Geometric Mean MIC): 0.672 µg/mL (≈ 0.959 µM); MIC ([1]; Nakaseomyces glabratus, Candida glabrata, read-out: MIC[90]): 2 µg/mL (≈ 2.85 µM); MIC ([1]; Nannizzia fulva, Microsporum fulvum, read-out: Geometric Mean MIC): 0.5 µg/mL (≈ 0.713 µM); MIC ([1]; Nannizzia fulva, Microsporum fulvum, read-out: MIC[90]): 0.5 µg/mL (≈ 0.713 µM); MIC ([1]; Nannizzia gypsea, Microsporum gypseum, read-out: Geometric Mean MIC): 0.042 µg/mL (≈ 0.0599 µM); MIC ([1]; Nannizzia gypsea, Microsporum gypseum, read-out: MIC[90]): 0.008 to 0.5 µg/mL (≈ 0.0114 to 0.713 µM); MIC ([1]; Nannizzia persicolor, Microsporum persicolor, read-out: Geometric Mean MIC): 0.25 µg/mL (≈ 0.357 µM); MIC ([1]; Nannizzia persicolor, Microsporum persicolor, read-out: MIC[90]): 0.25 µg/mL (≈ 0.357 µM); MIC ([1]; Paecilomyces spp, read-out: Geometric Mean MIC): 0.239 µg/mL (≈ 0.341 µM); MIC ([1]; Paecilomyces spp, read-out: MIC[90]): 0.5 µg/mL (≈ 0.713 µM); MIC ([1]; Papiliotrema laurentii, Cryptococcus laurentii, read-out: Geometric Mean MIC): 0.095 µg/mL (≈ 0.136 µM); MIC ([1]; Papiliotrema laurentii, Cryptococcus laurentii, read-out: MIC[90]): 0.008 to 0.5 µg/mL (≈ 0.0114 to 0.713 µM); MIC ([1]; Paracoccidioides brasiliensis, read-out: Geometric Mean MIC, Paracoccidioides brasiliensis): 0.048 µg/mL (≈ 0.0685 µM); MIC ([1]; Paracoccidioides brasiliensis, read-out: MIC[90], Paracoccidioides brasiliensis): 0.125 µg/mL (≈ 0.178 µM); MIC ([1]; Penicillium spp, read-out: Geometric Mean MIC): 0.308 µg/mL (≈ 0.44 µM); MIC ([1]; Penicillium spp, read-out: MIC[90]): 1 µg/mL (≈ 1.43 µM); MIC ([1]; Pichia etchel, read-out: Geometric Mean MIC): 0.125 µg/mL (≈ 0.178 µM); MIC ([1]; Pichia etchel, read-out: MIC[90]): 0.125 µg/mL (≈ 0.178 µM); MIC ([1]; Pichia kudriavzevii, Candida krusei, read-out: Geometric Mean MIC): 0.335 µg/mL (≈ 0.478 µM); MIC ([1]; Pichia kudriavzevii, Candida krusei, read-out: MIC[90]): 1 µg/mL (≈ 1.43 µM); MIC ([1]; Pleurothecium obovoideum, Ramichloridium obovoideum, read-out: Geometric Mean MIC): 0.044 µg/mL (≈ 0.0628 µM); MIC ([1]; Pleurothecium obovoideum, Ramichloridium obovoideum, read-out: MIC[90]): 0.031 to 0.063 µg/mL (≈ 0.0442 to 0.0899 µM); MIC ([1]; Rhizomucor spp, read-out: Geometric Mean MIC): 0.016 µg/mL (≈ 0.0228 µM); MIC ([1]; Rhizomucor spp, read-out: MIC[90]): 0.016 µg/mL (≈ 0.0228 µM); MIC ([1]; Rhizopus spp, read-out: Geometric Mean MIC): 1 µg/mL (≈ 1.43 µM); MIC ([1]; Rhizopus spp, read-out: MIC[90]): 4 µg/mL (≈ 5.71 µM); MIC ([1]; Saccharomyces cerevisiae, read-out: Geometric Mean MIC): 0.249 µg/mL (≈ 0.355 µM); MIC ([1]; Saccharomyces cerevisiae, read-out: MIC[90]): 1 µg/mL (≈ 1.43 µM); MIC ([1]; Scedosporium apiospermum, read-out: Geometric Mean MIC): 0.173 µg/mL (≈ 0.247 µM); MIC ([1]; Scedosporium apiospermum, read-out: MIC[90]): 1 µg/mL (≈ 1.43 µM); MIC ([1]; Scedosporium boydii, Pseudallescheria boydii, read-out: Geometric Mean MIC): 0.365 µg/mL (≈ 0.521 µM); MIC ([1]; Scedosporium boydii, Pseudallescheria boydii, read-out: MIC[90]): 1 µg/mL (≈ 1.43 µM); MIC ([1]; Sporothrix schenckii, read-out: Geometric Mean MIC): 0.771 µg/mL (≈ 1.1 µM); MIC ([1]; Sporothrix schenckii, read-out: MIC[90]): 2 µg/mL (≈ 2.85 µM); MIC ([1]; Trichophyton mentagrophytes, read-out: Geometric Mean MIC): 0.036 µg/mL (≈ 0.0514 µM); MIC ([1]; Trichophyton mentagrophytes, read-out: MIC[90]): 0.125 µg/mL (≈ 0.178 µM); MIC ([1]; Trichophyton rubrum, Trichophyton raubitschekii, read-out: Geometric Mean MIC): 0.25 µg/mL (≈ 0.357 µM); MIC ([1]; Trichophyton rubrum, Trichophyton raubitschekii, read-out: MIC[90]): 0.25 µg/mL (≈ 0.357 µM); MIC ([1]; Trichophyton rubrum, read-out: Geometric Mean MIC): 0.047 µg/mL (≈ 0.0671 µM); MIC ([1]; Trichophyton rubrum, read-out: MIC[90]): 0.25 µg/mL (≈ 0.357 µM); MIC ([1]; Trichophyton soudanense, read-out: Geometric Mean MIC): 0.5 µg/mL (≈ 0.713 µM); MIC ([1]; Trichophyton soudanense, read-out: MIC[90]): 0.5 µg/mL (≈ 0.713 µM); MIC ([1]; Trichophyton spp, read-out: Geometric Mean MIC): 0.036 µg/mL (≈ 0.0514 µM); MIC ([1]; Trichophyton spp, read-out: MIC[90]): 0.064 µg/mL (≈ 0.0913 µM); MIC ([1]; Trichophyton tonsurans, read-out: Geometric Mean MIC): 0.029 µg/mL (≈ 0.0414 µM); MIC ([1]; Trichophyton tonsurans, read-out: MIC[90]): 0.125 µg/mL (≈ 0.178 µM); MIC ([1]; Trichosporon spp, read-out: Geometric Mean MIC): 0.63 µg/mL (≈ 0.899 µM); MIC ([1]; Trichosporon spp, read-out: MIC[90]): 0.5 to 1 µg/mL (≈ 0.713 to 1.43 µM); MIC ([1]; Yarrowia lipolytica, read-out: Geometric Mean MIC): 0.144 µg/mL (≈ 0.205 µM); MIC ([1]; Yarrowia lipolytica, read-out: MIC[90]): 0.016 to 1 µg/mL (≈ 0.0228 to 1.43 µM); Solubility in water [2]: minimally soluble in water
